Results from patent publication US4757089A, “Increasing aqueous humor outflow” (Massachusetts Eye and Ear Infirmary, priority 1986, dated 1988).
Counter-ions that a name gives are not always drawn. Like-named read-outs stand apart in the source and are kept apart here.

Columns and labels:
monkey eye = settings: perfused monkey eye, 15 mm Hg, 22° C.; cited from earlier work
calf eye = settings: perfused calf eye, 15 mm Hg, 22° C.; cited from earlier work
Water solubility = format: physicochemical; settings: volume not given
[1] = format: physicochemical
Description: (§1) Each vial of ethacrynic acid contained ethacrynate sodium powder equivalent to 50 mg of ethacrynic acid. […] The powder was diluted with the above basic medium (Dulbecco's with added glucose) to yield the desired concentration. The solution was mixed at room temperature until dissolved, and the pH was determined (always 7.2) before use; the solution was filtered with a 0.2 micron filter (Nuclepore); this produced a solution which was stable for twenty four hours.
Ethcrynic acid powder was dissolved in 3% methylcellulose to yield the desired concentration. The solution was mixed at room temperature for one hour and was stable for twenty four hours. A similar osmotically balanced control solution was prepared. 3% methylcellulose was prepared as follows: methylcellulose powder (4000 CPS) was obtained from Dow company (lot number 14728). A 3% solution was prepared from powder dissolved in distilled water using low heat for several hours. The solution was refrigerated over night to yield a transparent, viscous fluid. The pH of the solution was determined by mixing one part of the control or experimental solution with five parts of distilled water. The pH ranged between 6.2 and 6.5 for both the control and experimental solutions. The 3% methylcellulose solution was refrigerated when not in use.

aqueous humor outflow = test: Two-step constant pressure perfusion, aqueous humor outflow facility in monkeys; format: in vivo, cynomologous monkeys
Text: (§2) Ethacrynic acid (sodium salt) was used to increase aqueous humor outflow in cynomologous monkeys, as described below. Ethacrynic acid can be purchased from Merck, Sharp, and Dome, and is described in U.S. Pat. No. 3,255,241, hereby incorporated by reference. Ethacrynic acid has the chemical formula [2,3-dichloro-4-(2-methylene-1-oxobutyl) phenoxy] acetic acid. Any suitable analogs described in U.S. Pat. No. 3,255,241 can also be used as described herein.
Each animal was randomly assigned one eye for the experimental and the other for its control perfusion. The animals were fasted the night before the experiment. They were anesthetized intramusclarly with Methohexital Sodium 15 mg/kg and Pentobarbital Sodium 35 mg/kg. Supplemental anesthesia as required was carried out with Pentobarbital 10 mg/kg/hour. Needles were placed through the cornea into the anterior chamber and a two-step constant pressure perfusion method was performed in order to determine aqueous humor outflow facility. […]
Each vial of ethacrynic acid contained ethacrynate sodium powder equivalent to 50 mg of ethacrynic acid. […] The solution was mixed at room temperature until dissolved, and the pH was determined (always 7.2) before use; the solution was filtered with a 0.2 micron filter (Nuclepore); this produced a solution which was stable for twenty four hours. […]

eye [2] = test: Ocular changes and side effects after anterior chamber perfusion in monkeys; format: in vivo, cynomologous monkeys
Text: as §2
(§3) Each animal was randomly assigned one eye for the experimental and the other for its control perfusion. The animals were fasted the night before the experiment. They were anesthetized intramusclarly with Methohexital Sodium 15 mg/kg and Pentobarbital Sodium 35 mg/kg. Supplemental anesthesia as required was carried out with Pentobarbital 10 mg/kg/hour. Needles were placed through the cornea into the anterior chamber and a two-step constant pressure perfusion method was performed in order to determine aqueous humor outflow facility. The basic medium for perfusion was Dulbecco's phosphate buffered saline with added 5.5 mM glucose. A 10 microliter bolus of the experimental or control solution (that would produce the desired final concentration in the anterior chamber) was injected through a T shaped connector piece in the infusion line.
as §1
During perfusion experiments, a 10 microliter bolus injection was made using a Hamilton syringe. Since the monkey anterior chamber is approximately 200 microliters, our calculations were as follows. To achieve a final concentration of 0.5 mM ethacrynic acid, 10 microliters of 10 mM ethacrynic acid was infused.
Experiments were carried out using final ethacrynic acid concentrations in the aqueous humor of 0.1 mM to 0.5 mM. There were at least three animals and separate experiments carried out for each of the concentrations […], 0.25 mM, and […].

intraocular pressure [3] = test: Intraocular pressure in monkeys a few days after perfusion; format: in vivo, cynomologous monkeys; settings: both eyes
Description: as §3

eye [4] = test: Ocular side effects after topical instillation in rabbits; format: in vivo, Dutch-belted rabbits
intraocular pressure [5] = test: Intraocular pressure after topical instillation in rabbits (Digilab Pneumotonometer); format: in vivo, Dutch-belted rabbits; settings: 10 mM and 3% methylcellulose, twenty four hours after instillation, fourteen rabbits, changed from 23.0, p less than 0.001, control eye 22.9 to 24.2
Description: For rabbit experiments Dutch-belted rabbits of either sex weighing 1.5 to 2 kg were used for topical studies. Each animal was randomly assigned one eye for the experimental and the other for its control solution. Intraocular pressure was measured using a Digilab Pneumotonometer. Any animals showing asymmetry of intraocular pressure greater than 2 mm were excluded form the study.
The protocol was as follows. Baseline intraocular pressure was taken in each eye using 0.5% proparacaine hydrochloride for topical anesthesia. Then a 100 microliter drop of either control solution or ethacrynic acid dissolved in 3% methylcellulose was instilled into one of the two eyes. In a half hour this was repeated. Two hours later intraocular pressure was measured in each eye. In some animals intraocular pressure was also measured five hours later and all animals had measurement of intraocular pressure the following day.
Ethcrynic acid powder was dissolved in 3% methylcellulose to yield the desired concentration. The solution was mixed at room temperature for one hour and was stable for twenty four hours. A similar osmotically balanced control solution was prepared. […] The pH of the solution was determined by mixing one part of the control or experimental solution with five parts of distilled water. […]

## CCN1C(=O)C=CC1=O [NEM, N-ethylmaleimide]
Monkey eye
  effect on outflow in the monkey eye: increase in outflow
Calf eye
  dosage producing a significant increase in the facility of outflow: ≥ 4.7 mM

## C=C(CC)C(=O)c1ccc(OCC(=O)O)c(Cl)c1Cl [sodium salt of ethacrynic acid]
Water solubility
  solubility in water: about 0.04 g

## C=C(CC)C(=O)c1ccc(OCC(=O)O)c(Cl)c1Cl [ethacrynic acid, [2,3-dichloro-4-(2-methylene-1-oxobutyl)phenoxy] acetic acid]
[1]
  stability of solution: twenty four
[1]; pH 7.2
  stability of solution: twenty four
Aqueous humor outflow; 0.25 mM final concentration
  outflow facility response: approximately half the animals perfused responded with a substantial increase in outflow facility
Aqueous humor outflow; lower dosages (below 0.25 mM; 0.1 mM tested)
  outflow facility effect: no effect
Eye [2]; dosages above 0.25 mM
  pupil dilation in treated eye: some of the animals developed a dilated pupil
Eye [2]; experimental and control eyes, believed to result from perfusion technique
  adhesions of the iris to the peripheral cornea: A small number of animals in both the experimental and control eyes developed adhesions of the iris to the peripheral cornea
Eye [2]; monkey perfusion
  chronic corneal edema, opacities or cataract formation: no chronic corneal edema or opacities or cataract formation
  corneal or crystalline lens changes: no apparent corneal or crystalline lens changes
Intraocular pressure [3]
  intraocular pressure: symmetrical and normal in both eyes
Eye [4]; 5 mM, topical
  conjunctival injection: slight conjunctival injection
Eye [4]; 10 mM, topical
  conjunctival injection and irritation: moderate conjunctival injection and signs of irritation
Eye [4]; higher concentrations (above 10 mM)
  reversibility of corneal toxicity and inflammation: resolved without apparent seguelae
Eye [4]; higher concentrations (above 10 mM), for several days
  corneal toxicity and anterior chamber inflammation: signs of corneal toxicity (corneal edema) and anterior chamber inflammation
Intraocular pressure [5]
  intraocular pressure in treated eye, 24 h: 20.0 mmHg
